In the supplement of paper PMC11451515:

Test system: P12-Ichikawa
Assay: cell viability relative to DMSO control; higher = less cytotoxic
Conditions: 48 h
Method in brief: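 Viability was expressed as a per-plate percentage of DMSO wells, with cell-free wells as background. Leukemia cells (NOMO1 or SEM at 500 cells/well, P12-Ichikawa at 1000 cells/well) were adapted for at least four passages in each medium and seeded in 1536-well plates (5 μl). Library compounds in DMSO were pin-dosed over an 11-point threefold series from 47 μM to 0.79 nM, and CellTiter-Glo One luminescence was read after 48 h at 37°C.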

[1] = HPLM + 10% dialyzed FBS, 0.000781 µM
[2] = HPLM + 10% dialyzed FBS, 0.00234 µM
[3] = HPLM + 10% dialyzed FBS, 0.00702 µM
[4] = HPLM + 10% dialyzed FBS, 0.0211 µM
[5] = HPLM + 10% dialyzed FBS, 0.0632 µM
[6] = HPLM + 10% dialyzed FBS, 0.19 µM
[7] = HPLM + 10% dialyzed FBS, 0.569 µM
[8] = HPLM + 10% dialyzed FBS, 1.71 µM
[9] = HPLM + 10% dialyzed FBS, 5.12 µM
[10] = HPLM + 10% dialyzed FBS, 15.4 µM
[11] = HPLM + 10% dialyzed FBS, 46.1 µM
[12] = RPMI 5 mM glucose + 10% FBS, 0.000781 µM
[13] = RPMI 5 mM glucose + 10% FBS, 0.00234 µM
[14] = RPMI 5 mM glucose + 10% FBS, 0.00702 µM
[15] = RPMI 5 mM glucose + 10% FBS, 0.0211 µM
[16] = RPMI 5 mM glucose + 10% FBS, 0.0632 µM
[17] = RPMI 5 mM glucose + 10% FBS, 0.19 µM
[18] = RPMI 5 mM glucose + 10% FBS, 0.569 µM
[19] = RPMI 5 mM glucose + 10% FBS, 1.71 µM
[20] = RPMI 5 mM glucose + 10% FBS, 5.12 µM
[21] = RPMI 5 mM glucose + 10% FBS, 15.4 µM
[22] = RPMI 5 mM glucose + 10% FBS, 46.1 µM
[23] = RPMI 5 mM glucose + 10% dialyzed FBS, 0.000781 µM
[24] = RPMI 5 mM glucose + 10% dialyzed FBS, 0.00234 µM
[25] = RPMI 5 mM glucose + 10% dialyzed FBS, 0.00702 µM
[26] = RPMI 5 mM glucose + 10% dialyzed FBS, 0.0211 µM
[27] = RPMI 5 mM glucose + 10% dialyzed FBS, 0.0632 µM
[28] = RPMI 5 mM glucose + 10% dialyzed FBS, 0.19 µM
[29] = RPMI 5 mM glucose + 10% dialyzed FBS, 0.569 µM
[30] = RPMI 5 mM glucose + 10% dialyzed FBS, 1.71 µM
[31] = RPMI 5 mM glucose + 10% dialyzed FBS, 5.12 µM
[32] = RPMI 5 mM glucose + 10% dialyzed FBS, 15.4 µM
[33] = RPMI 5 mM glucose + 10% dialyzed FBS, 46.1 µM

SMILES	cell viability [1] [%]	cell viability [2] [%]	cell viability [3] [%]	cell viability [4] [%]	cell viability [5] [%]	cell viability [6] [%]	cell viability [7] [%]	cell viability [8] [%]	cell viability [9] [%]	cell viability [10] [%]	cell viability [11] [%]	cell viability [12] [%]	cell viability [13] [%]	cell viability [14] [%]	cell viability [15] [%]	cell viability [16] [%]	cell viability [17] [%]	cell viability [18] [%]	cell viability [19] [%]	cell viability [20] [%]	cell viability [21] [%]	cell viability [22] [%]	cell viability [23] [%]	cell viability [24] [%]	cell viability [25] [%]	cell viability [26] [%]	cell viability [27] [%]	cell viability [28] [%]	cell viability [29] [%]	cell viability [30] [%]	cell viability [31] [%]	cell viability [32] [%]	cell viability [33] [%]
CC(C)(C)OC(=O)Nc1ccc(-c2cc(C(=O)NCCCCCCC(=O)NO)no2)cc1	90.9	94.6	92.3	95.2	93.3	92.5	92.8	45.8	40.7	4.57	4.67	87.8	85.6	87	88.1	80.1	80	84.8	32.5	35.3	3.1	3.16	88.4	90.5	83.7	86.6	82.6	85.4	83	9.73	7.46	3.76	3.52
CS[C@H]1SC[C@@H]2C(=O)N(C)[C@H](C(C)C)C(=O)OC[C@H](NC(=O)c3cnc4ccccc4n3)C(=O)N[C@H](C)C(=O)N(C)[C@H]1C(=O)N(C)[C@H](C(C)C)C(=O)OC[C@H](NC(=O)c1cnc3ccccc3n1)C(=O)N[C@H](C)C(=O)N2C	93.5	97.9	97.7	59	6.91	9.39	11.9	11.9	9.92	9.92	13.2	88	98.9	74.9	44.9	6.52	7.51	8.83	9.76	7.33	7.34	6.52	88.5	91.2	68.6	29.6	6.86	8.69	9.15	9.6	8.79	11.4	11.8
CCOCC(O)COc1ccc(NC(=O)CC[S+](C)C)cc1 (stereo not given)	87.3	82.5	87.9	96	91.9	88.1	98.5	98	93.7	99	95	88.2	90.5	93	97.9	91.3	95.9	95.9	97.3	94.4	104	92.3	85.3	74.7	88.7	88.8	82.7	91.3	89.5	84.6	85.6	88	78.8
CCN(CC)CCCC(C)Nc1nc(C)cc(Nc2ccc3nc(C)cc(N)c3c2)n1 (stereo not given)	101	107	109	117	122	122	126	115	130	114	118	108	109	104	121	117	126	124	112	129	107	112	107	113	111	120	117	123	126	124	126	118	101
Cc1ccc(-c2cc(C(F)(F)F)nn2-c2ccc([S+](N)(=O)[O-])cc2)cc1	86.8	125	118	118	120	110	128	117	115	112	105	–	–	–	–	–	–	–	–	–	–	–	111	119	122	113	115	123	123	122	121	105	102
O=C(O)Cc1cccc(OCCCN(Cc2cccc(C(F)(F)F)c2Cl)CC(c2ccccc2)c2ccccc2)c1	117	115	116	121	119	115	116	108	108	102	108	–	–	–	–	–	–	–	–	–	–	–	119	119	119	124	124	122	118	101	108	98.8	103
CC[C@@H]1C(=O)N(C)c2cnc(Nc3ccc(C(=O)NC4CCN(C)CC4)cc3OC)nc2N1C1CCCC1	116	123	112	84.8	13.1	13.3	13.4	16	16.5	11.4	4.01	126	123	116	107	15.6	15.3	17.5	15.4	15	12.9	4.84	116	124	121	114	19.4	18.7	19.7	20.8	21.2	17.8	4.69
CCCCc1nc2cc(/C=C/C(=O)NO)ccc2n1CCN(CC)CC	93	98.5	103	95.9	95.7	104	90.1	83.7	3.65	2.43	4.19	86.9	96.3	96.2	83.5	101	91.3	95.7	85.7	12.3	2.22	3.51	95.7	95.6	93.5	90.4	100	101	98.6	79.5	17.6	1.97	3.51
CCCCCN(CCC12CC3CC(CC(C3)C1)C2)C(=O)NCCCc1ccncc1	113	112	110	114	115	104	109	108	104	97.1	97.8	101	109	112	107	107	105	111	106	109	92.7	99.1	115	110	109	118	114	114	109	113	105	101	98.9
C[C@H](NCc1ccc(OCc2cccc(F)c2)cc1)C(N)=O	95.1	110	107	123	116	122	114	115	104	98	17.8	99.9	105	112	119	124	126	134	109	103	87.4	32.9	96	118	109	114	108	116	117	114	102	80.5	33.4
COc1cc2ncnc(Nc3cccc(Cl)c3)c2cc1OC	112	107	97.3	99.6	89.2	73	68.3	44.8	46.1	45.4	3.51	97.7	99.1	98.5	107	87.9	66.8	69.1	32.7	25.1	22.9	19	111	102	109	106	90.8	72.1	69.4	32	25.1	23	15.7
C=CC(=O)Nc1ccc2ncnc(Nc3ccc(OCc4cccc(F)c4)c(Cl)c3)c2c1	97	111	104	105	113	109	97.2	105	85.1	10.7	10.7	97.3	105	109	105	110	107	118	103	83.1	13.4	12.3	97.1	111	117	122	111	118	116	107	81	21.4	16.4
Clc1ccccc1C(c1ccccc1)(c1ccccc1)n1ccnc1	108	114	107	115	108	110	107	96.7	100	91.7	74.8	–	–	–	–	–	–	–	–	–	–	–	103	114	112	108	106	110	103	102	88.6	93.8	58.5
CC(C)CC(N(C)C)C1(c2ccc(Cl)cc2)CCC1 (stereo not given)	114	120	105	113	114	111	105	86.3	57.7	54.9	34	109	115	113	109	106	112	94	82.2	51.4	48.7	49.1	106	114	106	107	111	110	86.7	76.2	49.9	45.3	41.6
N#CC[C@H](C1CCCC1)n1cc(-c2ncnc3[nH]ccc23)cn1	95.7	95.2	98.5	98.1	98.6	90.3	89.4	91.8	72.9	52.8	40	93.7	95.7	93.4	92.6	103	89.2	83.1	95.4	75.4	54.5	23.3	90.8	89	86.3	87.4	89.6	88.3	82.2	87.7	70.4	41.1	23.3
Oc1ccc2ccccc2c1SSc1c(O)ccc2ccccc12	98.4	100	105	108	106	109	110	109	109	105	94.2	105	114	106	107	101	109	116	109	106	101	62.2	88.3	98.9	95.5	109	99.2	104	105	103	98.3	94.3	52.3
